Measured values taken from patent US20240270737A1, “SMALL MOLECULAR INHIBITORS OF STING SIGNALING COMPOSITIONS AND METHODS OF USE” (STINGINN INC., priority 2021, published 2024).

Key:
[1] = system: T1, human STING CBD-CTT (152-379); test: Thermal shift assay (TSA) binding to purified STING
T1 construct: made in house; host or cells: E. coli BL21 DE3 RIPL Codon Plus
From the text: Purified STING protein was used as bait to identify binding compounds, using a thermal shift assay (TSA). A library containing 250,000 compounds (Enamine, Monmouth Jct., NJ) was surveyed. Compounds that bound to STING were then examined for their ability to inhibit STING signaling, see Examples 1-4 vide infra. In the presence of cytosolic DNA species, STING becomes activated to drive the transcription of cytokines such as type I IFN. Compounds binding to STING via TSA were subsequently examined for their ability prevent cytosolic DNA species from activating the type I interferon (IFN) promoter, using a live cell assay. This assay comprised immortalized human fibroblasts (hTERT) that were stably transfected with the type I IFN promoter driving luciferase as well as the CMV promoter driving SEAP (hTERT-pIFNβ-Glu). The ability of the small molecules to prevent activation of the type I IFN promoter and the transcription of luciferase, but not SEAP in response to cytosolic DNA species can be assessed. […]
Thermal High Throughput Screen: The denaturation profile of purified STING (STING152-379H) was calibrated using a fluorometer equipped with temperature control (a qPCR apparatus with 320 well capacity). […] Curves were measured for STING only and STING+small molecule, and ΔTm was calculated. […]

pIRF3, pSTING = test: Western blot of pIRF3, pSTING, pTBK1 after ISD transfection in hTERT cells; format: cell-based, human
Method: FIG. 1C are photographs showing Western blot analysis of STING, phospho-TBK1 (pTBK1) and phospho-IRF3 (pIRF3) performed at 6 hours after ISD transfection with/without W1 treatment same as FIG. 1A, Mock is shown (210), ISD treatment only (220) was used as a control, according to an embodiment of the invention;
Immunoblot analysis: Equal amounts of proteins were resolved on sodium dodecyl sulfate (SDS)-Polyacrylamide gels and then transferred to polyvinylidene fluoride (PVDF) membranes (Millipore). After blocking with 5% Blocking Reagent, membranes were incubated with various primary antibodies (and appropriate secondary antibodies). The image was resolved using an enhanced chemiluminescence system ECL (Thermo Scientific) and detected by autoradiography (Kodak). Antibodies: rabbit polyclonal antibody against STING was developed in our laboratory as described previously in Ishikawa et al, 2008; other antibodies were obtained from following sources: β-actin (Sigma Aldrich), p-IRF3 (Cell Signaling), IRF3 (Santa Cruz Biotechnology), p-p65 (Cell Signaling), p65 (Cell Signaling), p-TBK1 (Cell Signaling), TBK1 (Abcam), cGAS (Cell Signaling).

SMILES: Cc1cc([N+](=O)[O-])ccc1S(=O)(=O)Nc1nc2cc(C(F)(F)F)ccc2[nH]1 [Compound W1, 2-methyl-4-nitro-N-[5-(trifluoromethyl)-1H-1,3-benzodiazol-2-yl]benzene-1-sulfonamide]
- binding to STING [1]: binds to STING
- inhibition at 10 µM (pIRF3, pSTING; Homo sapiens): < 10%
- STING phosphorylation and TBK1 and IRF3 phosphorylation (pIRF3, pSTING; hTERT cells, 6 hours after ISD transfection): robustly prevented
